From patent publication US20130156845A1, “LIPID FORMULATED SINGLE STRANDED RNA” (ALNYLAM PHARMACEUTICALS, INC., priority 2010, published 2013)
Read-outs that look alike come from different tables or passages of the source. Strand notation (5' to 3'): a small letter for the sugar, then the base; units joined by * are phosphorothioate-linked, units joined directly phosphodiester-linked; [ ] holds rarer units or linkages, { } end groups; capitals alone tell only the bases. [DMAEAc-N] = nucleoside with 2'-O-dimethylaminoethyl acetamide (DMAEAc) sugar (N: the base); [R5Me] = (R)-5'-methyl-2'-deoxythymidine; e = 2'-O-(2-methoxyethyl) (MOE); m = 2'-O-methyl; {P} = phosphate; f = 2'-fluoro

What was measured:
[1] = test system: A549 cells; test: MicroRNA mimics: cell cycle assay; format: cell-based; settings: RNAIMAX transfection, 0.1-100 nM, nocodazole, propidium iodide flow cytometry
Protocol: A cell cycle assay was used to evaluate the activity of microRNA mimics. A549 cells were plated at a density of approximately 45,000 cells per well of a 24-well plate. The following day, cells were transfected with microRNA mimics and control oligomeric compounds, using RNAIMAX as the transfection reagent. Oligomeric compounds were tested at concentrations ranging from 0.1 nM to 100 nM. Control oligomeric compounds were also tested. Approximately 24 hours following transfection, nocodazole was added to the cells at a concentration ranging from 0.5 to 2.0 μg/ml. Approximately 16 hours later, the cells were harvested, washed, ethanol-fixed and stained with propidium iodide. Cells cycle profiles were generated by subjecting the stained cells to flow cytometry (FACSCAN).

[2] = Modified ssRNA 5′-phosphate serum stability assay (Example 60); format: in vitro ADME; settings: full length ssRNA with 5′-terminal phosphate; 10 μM in 95% fresh mouse serum, 37° C., LC/MS
Excerpt: A serum stability assay is useful for evaluating the stability of oligomeric compounds in the presences of nucleases and other enzymes found in serum. For example, the stability of a 5′-terminal phosphate group of an oligomeric compound can be evaluated by assessing the ability of the 5′-terminal phosphate group to remain attached to the oligomeric compound in the presence of serum. Accordingly, a serum stability assay was employed to evaluate the stability of modified ssRNAs having a 5′-terminal phosphate group.
Various modified ssRNAs, shown below, having a 5′-terminal phosphate group (10 μM) were dissolved in 95% of fresh mouse serum and incubated at 37° C. Aliquots of serum (100 μL) were removed after 0, 1, 3, 6 or 24 hours of incubation times. The serum samples were immediately quenched and snap frozen. The samples were extracted by the strong anion exchange (SAX) and octadecylsilyl (C-18) columns. For each incubation time, the amount of full length modified ssRNA having a 5′-terminal phosphate group was determined by LC/MS, and the half-life of the full length modified ssRNA having a 5′ terminal phosphate group was calculated. The results are expressed as half-time (T1/2) in the table below.

[3] = Phosphate stability in mouse serum (Example 68)
Protocol: Single-stranded oligomeric compounds were tested for stability in mouse serum.

[4] = test system: human PTEN; test: PTEN expression in HeLa cells, ssRNAs vs siRNAs (Example 62); format: cell-based
Protocol: A series of 5′ and 2′ bis-substituted modified oligomeric compounds were prepared as single strand RNAs (ssRNAs). The antisense (AS) strands listed below were designed to target human PTEN, and each was also assayed as part of a duplex with the same sense strand (ISIS 341401, shown below) for their ability to reduce PTEN expression levels. HeLa cells were treated with the single stranded or double stranded oligomeric compounds created with the antisense compounds shown below using methods described herein. The IC50's were calculated using the linear regression equation generated by plotting the normalized mRNA levels to the log of the concentrations used.

[5] = test system: PTEN; test: Liver PTEN mRNA in Balb/c mice, unformulated oligomeric compounds (Example 70); format: in vivo, mouse; settings: 48 h; for inhibition of PTEN: 75 mg/kg, liver; for % inhibition: liver PTEN mRNA, single i.p. dose 75 mg/kg, normalized to saline control
Protocol: Six-week-old male Balb/c mice (Jackson Laboratory, Bar Harbor, Me.) were injected intraperitenially with a single dose of 75 mg/kg of one of the three oligomeric compounds above or with saline control. Each dose group consisted of four animals. The mice were sacrificed 48 hours following administration. Livers were collected and PTEN mRNA levels were assessed using real-time PCR and RIBOGREEN® RNA quantification reagent (Molecular Probes, Inc. Eugene, Oreg.) according to standard protocols. PTEN mRNA levels were determined relative to total RNA (using Ribogreen), and normalized to the saline-treated control. Results are listed below as the average % inhibition of PTEN mRNA expression for each treatment group, normalized to saline-injected control.

[6] = test system: PTEN; test: PTEN mRNA reduction in HeLa cells, dose response (Example 69); format: cell-based, human; settings: percent inhibition of PTEN mRNA, 0.067-50 nM
Protocol: In accordance with the present disclosure, oligomeric compounds were synthesized and tested for their ability to reduce PTEN expression over a range of doses. Human HeLa cells were treated with either ISIS 447581, 467074, 418046 or 467076. A dose comparison was evaluated with dose concentrations of 0.067, 0.2, 0.62, 1.9, 5.5, 16.7 and 50 nM using methods described herein. Expression levels of PTEN were determined using real-time PCR and normalized to RIBOGREEN™ using methods described herein. The percent inhibition of PTEN mRNA was determined and the resulting dose-response curves were used to determine the EC50. The EC50s are listed below.

[7] = test system: PTEN; test: In vivo evaluation of ssRNA formulated in lipid particle LNP06, liver PTEN mRNA (Example 77); parameters: species or system mouse; settings: ssRNA formulated in LNP06, 4.5 mg/kg tail vein, C57BL/6 mice, liver PTEN mRNA normalized to GAPDH, 2 days post injection
Protocol: In accordance with the present disclosure, oligomeric compounds were synthesized and tested for their ability to reduce PTEN. C57BL/6 mice (Charles River Labs, MA) received either saline or LNP formulated single stranded RNA via tail vein injection at a volume of 0.01 mL/g and the single stranded RNA dose is 4.5 mg/kg. 25 groups of female mice and 9 modified ssRNAs targeting PTEN were formulated in LNP06 and tested. To determine liver mRNA levels of PTEN, 2 days post injection, animals were sacrificed and livers were harvested and snap frozen in liquid nitrogen. Liver lysates were prepared from the frozen tissues and liver mRNA levels of PTEN normalized to GAPDH were quantified using a branched DNA assay (QuantiGene Assay, Panomics, Calif.).

[8] = In vivo stability: tissue level of intact compound (Example 71)
Protocol: The in vivo stability of the three oligomeric compounds in Example 70 was evaluated. The tissue samples were obtained from the animals in which PTEN was assessed. […] Quantitative analysis of the oligonucleotides standard were performed by extracted ion chromatograms in the most abundant charge state (−4) using Chemstation software.

[9] = full compound with intact phosphorous moiety, first table
[10] = antisense strand duplexed with sense strand ISIS 341401, PTEN mRNA, read-out: EC50 (nM) siRNA
[11] = single stranded antisense compound, PTEN mRNA, read-out: EC50 (nM) ssRNA
[12] = Dose @ 75 mg/kg (48 h time point)

Substance | T1/2 [2] [h] | EC50 [4, 10] [nM] | EC50 [4, 11] [nM] | EC50 [6] [nM] | further results
ds miR-16: double-stranded miR-16 mimic: UAGCAGCACGUAAAUAUUGGCG (SEQ 21) with AAAGCGUCGUGCAUUUAUAACC (SEQ 22) (chain 2 CCAAUAUUUACGUGCUGCGAAA; listed as RNA, chemistry not given here) [reference compound] | – | – | – | – | cell cycle phenotype [1]: blocked cells in the G1 phase of the cell cycle
P-USfUfGfUfCfUfCfUfGfGfUfCfCfUfUfAfCfUfUf (antisense UUGUCUCUGGUCCUUACUU; 5'-phosphate, 2'-F, phosphorothioate, chemistry not fully specified) [ISIS 398701, modified ssRNA targeting PTEN] | 18.2 | – | – | – | –
P-TRUfGfUfCfUfCfUfGfGfUfCfCfUfUfAfCfUfUfAeAe (antisense TUGUCUCUGGUCCUUACUUAA; sugars from the 5' end [R5Me]1 f18 e2, 5' {P}, backbone not given here) [ISIS 432356, modified ssRNA targeting PTEN] | 8.7 | 0.7 | 3 | – | T1/2 full length [3, 9]: 8.7 h
Py-^meUmUfGmUfCmUfCmUfGmGfUmCfCmUfUmAfCmUfUmAeAe (antisense UUGUCUCUGGUCCUUACUUAA; 5'-methylenephosphonate, 2'-F/2'-OMe, MOE, chemistry not fully specified) [ISIS 467076, modified ssRNA targeting PTEN, 5′-methylenephosphonate] | – | 0.05 | 6 | 6 | inhibition of PTEN [5]: smaller inhibition of PTEN; % inhibition [5]: 16%; % Kd [7]: 34%; level of intact compound in tissue ([8]; 75 mg/kg, 48 h): present at a lower concentration; Tissue Level of intact compound [8, 12]: 22.5 µg/g
P-TScUfGmUfCmUfCmUfGmGfUmCfCmUfUmAfCmUfUmAeAe (antisense TUGUCUCUGGUCCUUACUUAA; 5'-phosphate, 2'-F/2'-OMe, MOE modifications, chemistry not fully specified) [ISIS 467074, modified ssRNA targeting PTEN] | – | 0.1 | 2.5 | 2.5 | inhibition of PTEN [5]: lowest amount of PTEN reduction; % inhibition [5]: 11%; % Kd [7]: 52%; compound lacking the 5′-phosphate in tissue ([8]; 75 mg/kg, 48 h): detected; level of intact compound in tissue ([8]; 75 mg/kg, 48 h): not detected; Tissue Level of intact compound (μg/g) [8, 12]: none detected
P-UmAfGfCfAfGfCfAfCmGmUfAfAmAmUfAfUfUfGfGmCmGmAeAe [ss miR-16] | – | – | – | – | cell cycle phenotype [1]: blocking cells in the G1 phase of the cell cycle
P-UmUfGmUfCmUfCmUfGmGfUmCfCmUfUmAfCmUfUmAeAe (antisense UUGUCUCUGGUCCUUACUUAA; sugars from the 5' end mfmfmfmfmfmfmfmfmfmee, 5' {P}, backbone not given here) [ISIS 418046, modified ssRNA targeting PTEN] | – | 0.2 | 2 | 0.83 | –
P-TdUfGfUfCfUfCfUfGfGfUfCfCfUfUfAfCfUfUfAeAe (antisense {P}-[DMAEAc-T]fUfGfUfCfUfCfUfGfGfUfCfCfU*fU*fA*fC*fU*fU*eA*eA) [ISIS 422391, modified ssRNA targeting PTEN] | 6.5 | 0.5 | 5 | – | T1/2 full length ([3]; four compounds tested separately, second table): 3.7 h; T1/2 full length [3, 9]: 6.5 h
